The target in one test is T1, Akt3 (Homo sapiens, UniProt Q9Y243).
T1 construct: unspecified tag, removed (detagged) (cleaved yes); purchased SignalChem and Proteros (Akt3); Merck Millipore (PDK1) 14-452 (PDK1); none given for Akt3
In words: Akt activation assay (PDK1-mediated activation, LANCE Ultra crosstide TR-FRET), Akt3. It is filed as biochemical. The note with it: read-out: Biological Assay 1 IC50 (nM) Akt3. The method in brief:
(§1)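 Unactivated Akt (5 nM Akt1, 15 or 5 nM Akt2, 3 or 5 nM Akt3, by supplier) preincubated with compound, then activated by 5 nM PDK1 on DOPS/DOPC/PtdIns(3,4,5)P3 vesicles with 100 μM ATP and 100 nM Ulight-crosstide, pH 7.5, 30 min. Eu-anti-phospho-crosstide TR-FRET (665/615 nm); IC50 by 4-parameter fit.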

For another test, the target named is T2, Akt2 (Homo sapiens, UniProt P31751).
T2 construct: unspecified tag, removed (detagged) (cleaved yes); purchased SignalChem and Proteros (Akt2); Merck Millipore (PDK1) 14-452 (PDK1); none given for Akt2
T2 sequence (P31751 whole entry): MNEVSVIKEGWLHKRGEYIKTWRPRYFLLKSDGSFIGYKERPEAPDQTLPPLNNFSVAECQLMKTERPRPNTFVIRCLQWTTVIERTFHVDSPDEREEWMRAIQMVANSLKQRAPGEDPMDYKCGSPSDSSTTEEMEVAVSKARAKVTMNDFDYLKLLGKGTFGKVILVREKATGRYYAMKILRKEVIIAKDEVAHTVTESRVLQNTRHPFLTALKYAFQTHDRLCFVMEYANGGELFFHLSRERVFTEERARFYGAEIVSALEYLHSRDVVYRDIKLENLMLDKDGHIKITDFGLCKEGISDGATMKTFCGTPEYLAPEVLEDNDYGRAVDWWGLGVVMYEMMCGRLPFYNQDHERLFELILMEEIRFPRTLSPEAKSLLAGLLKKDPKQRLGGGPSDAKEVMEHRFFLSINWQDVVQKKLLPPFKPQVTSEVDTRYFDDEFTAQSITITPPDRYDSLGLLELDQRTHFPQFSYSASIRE
Nature of the test: Akt activation assay (PDK1-mediated activation, LANCE Ultra crosstide TR-FRET), Akt2. The conditions noted are these: read-out: Biological Assay 1 IC50 (nM) Akt2. It is filed as biochemical. In a few lines:
as §1

The next test concerns the target T3, p-Akt2 in WM115 cells (Homo sapiens, UniProt P31751).
T3 construct: SureFire assays to detect cellular p-Akt1, p-Akt2 and p-Akt3 levels in WM115 cells (Akt2/3) and LNCaP cells (Akt1); endogenous in cells; host or cells: WM115 (ECACC 91061232), insulin-stimulated
Nature of the test: Phospho-Akt cellular SureFire assay, p-Akt2 in WM115 cells. The conditions noted are these: insulin stimulated, read-out: Biological Assay 2 IC50 (nM) Akt2 WM115. It is filed as cell-based. In a few lines:
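WM115 cells in 0.1% FBS medium stimulated 10 min with 100 nM insulin, then exposed to compound for 15 min at 37° C (0.3% DMSO final). Lysates assayed by AlphaScreen with anti-(pThr308)Akt and isoform-specific total Akt2 antibodies; IC50 from 4-parameter fit.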

For another test, the target named is T4, p-Akt3 in WM115 cells (Homo sapiens, UniProt Q9Y243).
T4 construct: SureFire assays to detect cellular p-Akt1, p-Akt2 and p-Akt3 levels in WM115 cells (Akt2/3) and LNCaP cells (Akt1); endogenous in cells; host or cells: WM115 (ECACC 91061232), insulin-stimulated
T4 sequence (Q9Y243 whole entry): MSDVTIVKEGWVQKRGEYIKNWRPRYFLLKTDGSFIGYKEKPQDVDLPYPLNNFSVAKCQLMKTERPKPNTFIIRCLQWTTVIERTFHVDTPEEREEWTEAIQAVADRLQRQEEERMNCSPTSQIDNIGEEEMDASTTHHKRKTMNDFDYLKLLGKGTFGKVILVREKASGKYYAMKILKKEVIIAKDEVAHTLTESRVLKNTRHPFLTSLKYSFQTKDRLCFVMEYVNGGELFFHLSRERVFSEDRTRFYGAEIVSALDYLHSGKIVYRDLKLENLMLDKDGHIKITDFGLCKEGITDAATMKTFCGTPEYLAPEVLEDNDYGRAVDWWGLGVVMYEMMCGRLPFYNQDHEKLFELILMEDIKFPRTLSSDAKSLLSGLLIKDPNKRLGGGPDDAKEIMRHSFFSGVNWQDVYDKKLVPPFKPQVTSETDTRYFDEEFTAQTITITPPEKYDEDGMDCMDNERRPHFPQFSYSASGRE
In words: Phospho-Akt cellular SureFire assay, p-Akt3 in WM115 cells. It is filed as cell-based. The note with it: insulin stimulated, read-out: Biological Assay 2 IC50 (nM) Akt3 WM115. The method in brief: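 WM115 cells were serum-reduced to 0.1% FBS, stimulated with 100 nM insulin for 10 min, then exposed to compound (0.3% DMSO) for 15 min at 37 °C. Lysates were assayed for Thr308-phosphorylated Akt3 by AlphaScreen SureFire using an isoform-specific total Akt3 capture antibody. IC50 was derived from a 4-parameter fit.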

The target in a further test is T5, Akt1 (Homo sapiens, UniProt P31749).
T5 construct: unspecified tag, removed (detagged) (cleaved yes); purchased SignalChem and Proteros (Akt1); Merck Millipore (PDK1) 14-452 (PDK1); none given for Akt1
T5 sequence (P31749 whole entry): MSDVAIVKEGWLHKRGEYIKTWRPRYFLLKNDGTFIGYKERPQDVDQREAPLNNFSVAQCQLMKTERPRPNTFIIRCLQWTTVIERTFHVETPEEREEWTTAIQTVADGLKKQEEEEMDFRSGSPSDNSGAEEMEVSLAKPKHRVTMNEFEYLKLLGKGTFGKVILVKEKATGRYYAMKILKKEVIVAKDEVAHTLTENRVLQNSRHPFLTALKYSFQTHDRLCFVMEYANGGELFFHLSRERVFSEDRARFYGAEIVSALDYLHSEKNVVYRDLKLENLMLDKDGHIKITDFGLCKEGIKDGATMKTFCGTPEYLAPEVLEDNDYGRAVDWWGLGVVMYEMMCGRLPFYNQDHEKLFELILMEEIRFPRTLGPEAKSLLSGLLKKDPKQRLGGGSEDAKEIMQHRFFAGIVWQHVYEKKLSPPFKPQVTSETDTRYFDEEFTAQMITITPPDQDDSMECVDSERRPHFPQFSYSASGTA
In words: Akt activation assay (PDK1-mediated activation, LANCE Ultra crosstide TR-FRET), Akt1. It is filed as biochemical. The conditions noted are these: read-out: Biological Assay 1 IC50 (nM) Akt1. The method in brief:
as §1

Another test deals with T6, p-Akt1 in LNCaP cells (Homo sapiens, UniProt P31749).
T6 construct: SureFire assays to detect cellular p-Akt1, p-Akt2 and p-Akt3 levels in WM115 cells (Akt2/3) and LNCaP cells (Akt1); endogenous in cells; host or cells: LNCaP (ECACC 89110211)
T6 sequence (P31749 whole entry): as above
Nature of the test: Phospho-Akt cellular SureFire assay, p-Akt1 in LNCaP cells. It is filed as cell-based. The note with it: read-out: Biological Assay 2 IC50 (nM) Akt1 LNCaP. In a few lines:
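LNCaP cells, 5×10^4/well, seeded overnight, switched to 0.1% FBS medium without insulin stimulation, then compound for 15 min at 37 °C (0.3% DMSO). Lysate p-Akt1 (pThr308) by AlphaScreen SureFire, two 2 h incubations at room temperature; IC50 by 4-parameter fit.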

T3 sequence (P31751 whole entry): as the sequence (P31751 whole entry) above
T1 sequence (Q9Y243 whole entry): as the sequence (Q9Y243 whole entry) above

With `CC(=O)N[C@H]1CC[C@H](CC(=O)Nc2cnc(-c3ccc([C@]4(N)C[C@H](F)C4)cc3)c(-c3ccccc3)c2)CC1` [Example 15, 2-(trans-4-acetamidocyclohexyl)-N-(6-(4-(trans-1-amino-3-fluorocyclobutyl)phenyl)-5-phenylpyridin-3-yl)acetamide], the IC50 on Akt3 is 180 nM; on Akt2, 580 nM; on p-Akt2 in WM115 cells it was 1100 nM; on p-Akt3 in WM115 cells it was 21 nM; at Akt1, 7700 nM; on p-Akt1 in LNCaP cells, above 22000 nM.
As to `CC(=O)N(C)[C@H]1CC[C@H](CC(=O)Nc2cnc(-c3ccc(C4(N)CCC4)cc3)c(-c3ccccc3F)c2)CC1` [Example 16, N-(6-(4-(1-aminocyclobutyl)phenyl)-5-(2-fluorophenyl)pyridin-3-yl)-2-(trans-4-(N-methylacetamido)cyclohexyl)acetamide], the IC50 came out at 24 nM at Akt3; 380 nM at Akt2; 710 nM on p-Akt2 in WM115 cells; 45 nM on p-Akt3 in WM115 cells; 7800 nM at Akt1; 11000 nM at p-Akt1 in LNCaP cells.
Consider `CN([C@H]1CC[C@H](CC(=O)Nc2cnc(-c3ccc(C4(N)CCC4)cc3)c(-c3ccsc3)c2)CC1)S(C)(=O)=O` [Example 17, N-(6-(4-(1-aminocyclobutyl)phenyl)-5-(thiophen-3-yl)pyridin-3-yl)-2-(trans-4-(N-methylmethylsulfonamido)cyclohexyl)acetamide], for which the IC50 on Akt3 was 48 nM; at Akt2 it was 1200 nM; on p-Akt2 in WM115 cells it was 1900 nM; on p-Akt3 in WM115 cells it was 140 nM; at Akt1 it was above 26000 nM; at p-Akt1 in LNCaP cells, 7100 nM.
For `CC(=O)N[C@H]1CC[C@H](CC(=O)Nc2cnc(-c3ccc(C4(N)CCC4)cc3)c(-c3ccsc3C)c2)CC1` [Example 18, 2-(trans-4-acetamidocyclohexyl)-N-(6-(4-(1-aminocyclobutyl)phenyl)-5-(2-methylthiophen-3-yl)pyridin-3-yl)acetamide], the IC50 on Akt3 was 1300 nM; at Akt2, 6900 nM; on p-Akt2 in WM115 cells it was 14000 nM; on p-Akt3 in WM115 cells, 1100 nM; on Akt1, above 30000 nM; at p-Akt1 in LNCaP cells, above 30000 nM.
Consider `CC(C)(N)c1ccc(-c2ncc(NC(=O)C[C@H]3CC[C@H](N4CCCC4=O)CC3)cc2-c2ccccc2)cc1` [Example 24, N-(6-(4-(2-aminopropan-2-yl)phenyl)-5-phenylpyridin-3-yl)-2-(trans-4-(2-oxopyrrolidin-1-yl)cyclohexyl)acetamide], for which the half-maximal inhibitory concentration (IC50) at Akt3 was 300 nM; on Akt2, 10000 nM; at p-Akt2 in WM115 cells it was 6700 nM; on p-Akt3 in WM115 cells, 170 nM; at Akt1 it was above 30000 nM; on p-Akt1 in LNCaP cells it was above 18000 nM.
For the compound `CC(C)(N)c1ccc(-c2ncc(NC(=O)C[C@H]3CC[C@H](NC(=O)C4CC4)CC3)cc2-c2ccsc2)cc1` [Example 26, N-(trans-4-(2-((6-(4-(2-aminopropan-2-yl)phenyl)-5-(thiophen-3-yl)pyridin-3-yl)amino)-2-oxoethyl)cyclohexyl)cyclopropanecarboxamide], the IC50 was 1600 nM on Akt3; 12000 nM at Akt2; 9000 nM on p-Akt2 in WM115 cells; 380 nM at p-Akt3 in WM115 cells; above 30000 nM at Akt1; above 16000 nM on p-Akt1 in LNCaP cells.
As to `CN(C(=O)C1CC1)[C@H]1CC[C@H](CC(=O)Nc2cnc(-c3ccc(C(C)(C)N)cc3)c(-c3ccsc3)c2)CC1` [Example 27, N-(trans-4-(2-((6-(4-(2-aminopropan-2-yl)phenyl)-5-(thiophen-3-yl)pyridin-3-yl)amino)-2-oxoethyl)cyclohexyl)-N-methylcyclopropanecarboxamide], the 50% inhibitory concentration (IC50) at Akt3 is 680 nM; on Akt2, 12000 nM; at p-Akt2 in WM115 cells, 10000 nM; at p-Akt3 in WM115 cells, 380 nM; on Akt1, above 30000 nM; at p-Akt1 in LNCaP cells it was above 30000 nM.
Take `CC(C)(N)c1ccc(-c2ncc(NC(=O)C[C@H]3CC[C@H](NC(=O)CC4CC4)CC3)cc2-c2ccccc2)cc1` [Example 29, N-(6-(4-(2-aminopropan-2-yl)phenyl)-5-phenylpyridin-3-yl)-2-(trans-4-(2-cyclopropylacetamido)cyclohexyl)acetamide]: the IC50 at Akt3 was 53 nM; at Akt2, 2200 nM; at p-Akt2 in WM115 cells, 8400 nM; on p-Akt3 in WM115 cells it was 170 nM; at Akt1, above 33000 nM; on p-Akt1 in LNCaP cells it was above 13000 nM.
In the case of `CC(=O)N(C)[C@H]1CC[C@H](CC(=O)Nc2cc(-c3ccccc3)c(-c3ccc(C(C)(C)N)cc3)nn2)CC1` [Example 30, N-(6-(4-(2-aminopropan-2-yl)phenyl)-5-phenylpyridazin-3-yl)-2-(trans-4-(N-methylacetamido)cyclohexyl)acetamide], the IC50 on Akt3 is 470 nM; on Akt2, 12000 nM; on p-Akt2 in WM115 cells, 6800 nM; at p-Akt3 in WM115 cells it was 72 nM; at Akt1, above 30000 nM; at p-Akt1 in LNCaP cells, above 30000 nM.
As to `CC(=O)N(C)[C@H]1CC[C@H](CC(=O)Nc2cnc(-c3ccc(C(C)(C)N)c(F)c3)c(-c3ccccc3)c2)CC1` [Example 31, N-(6-(4-(2-aminopropan-2-yl)-3-fluorophenyl)-5-phenylpyridin-3-yl)-2-(trans-4-(N-methylacetamido)cyclohexyl)acetamide], the IC50 was 1700 nM on Akt3; above 15000 nM at Akt2; above 30000 nM at p-Akt2 in WM115 cells; 440 nM at p-Akt3 in WM115 cells; above 30000 nM at Akt1; above 30000 nM on p-Akt1 in LNCaP cells.
As for `CC(=O)N(C)[C@H]1CC[C@H](CC(=O)Nc2cnc(-c3ccc([C@]4(N)C[C@H](F)C4)cc3)c(-c3ccccc3)c2)CC1` [Example 32, N-(6-(4-(trans-1-amino-3-fluorocyclobutyl)phenyl)-5-phenylpyridin-3-yl)-2-(trans-4-(N-methylacetamido)cyclohexyl)acetamide], the half-maximal inhibitory concentration (IC50) stood at 34 nM at Akt3; 470 nM at Akt2; 1400 nM at p-Akt2 in WM115 cells; 36 nM at p-Akt3 in WM115 cells; 2000 nM at Akt1; 6900 nM at p-Akt1 in LNCaP cells.
Regarding `COC(=O)N(C)[C@H]1CC[C@H](CC(=O)Nc2cnc(-c3ccc(C(C)(C)N)cc3)c(-c3ccccc3)c2)CC1` [Example 34, methyl (trans-4-(2-((6-(4-(2-aminopropan-2-yl)phenyl)-5-phenylpyridin-3-yl)amino)-2-oxoethyl)cyclohexyl)(methyl)carbamate], the IC50 at Akt3 was 380 nM; at Akt2, 6500 nM; on p-Akt2 in WM115 cells, 5200 nM; on p-Akt3 in WM115 cells, 150 nM; at Akt1 it was above 29000 nM; on p-Akt1 in LNCaP cells, above 15000 nM.
`CN(C1CCC(CC(=O)Nc2cnc(-c3ccc(C(C)(C)N)cc3)c(-c3ccccc3)c2)CC1)C1(C)COC1` (stereo not drawn) [Example 35, N-(6-(4-(2-aminopropan-2-yl)phenyl)-5-phenylpyridin-3-yl)-2-(4-(methyl(3-methyloxetan-3-yl)amino)cyclohexyl)acetamide]: the IC50 at Akt3 is 17000 nM; at Akt2 it was 25000 nM; on p-Akt2 in WM115 cells, 17000 nM; at p-Akt3 in WM115 cells it was 1500 nM; at Akt1, above 30000 nM; at p-Akt1 in LNCaP cells, above 30000 nM.
For `COC1(OC)CCC(CC(=O)Nc2cnc(-c3ccc(C4(N)COC4)cc3)c(-c3ccccc3)c2)CC1` [Example 36, N-(6-(4-(3-aminooxetan-3-yl)phenyl)-5-phenylpyridin-3-yl)-2-(4,4-dimethoxycyclohexyl)acetamide], the IC50 at Akt3 is 100 nM; at Akt2, above 30000 nM; on p-Akt2 in WM115 cells, 3800 nM; on p-Akt3 in WM115 cells, 230 nM; at Akt1, above 30000 nM; on p-Akt1 in LNCaP cells, above 30000 nM.
